According to patent EP4603105A1, “PHARMACEUTICAL COMPOSITION CONTAINING CYCLIC COMPOUND HAVING SELECTIVE KRAS INHIBITORY EFFECT AGAINST HRAS AND NRAS” (CHUGAI SEIYAKU KABUSHIKI KAISHA, priority 2022, dated 2024):
Where two headings read alike, the source gives them in different places.

Legend:
[1] = biological target: GDP-bound NRAS wild-type protein (Homo sapiens, UniProt P01111); assay: Binding to NRAS by surface plasmon resonance (SPR), KD and KD ratio to KRAS
Procedure, shortened: (§1)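 Affinity is measured by surface plasmon resonance at 30°C against captured, GDP-loaded RAS carrying a biotinylated Avi tag. Compounds are titrated by single-cycle kinetics, and KD comes from a 1:1 fit.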

[2] = biological target: GDP-bound KRAS wild-type protein (Homo sapiens, UniProt P01116); assay: Binding to KRAS by surface plasmon resonance (SPR), dissociation constant KD
Sequence of GDP-bound KRAS wild-type protein (P01116 1-188 isoform P01116-2): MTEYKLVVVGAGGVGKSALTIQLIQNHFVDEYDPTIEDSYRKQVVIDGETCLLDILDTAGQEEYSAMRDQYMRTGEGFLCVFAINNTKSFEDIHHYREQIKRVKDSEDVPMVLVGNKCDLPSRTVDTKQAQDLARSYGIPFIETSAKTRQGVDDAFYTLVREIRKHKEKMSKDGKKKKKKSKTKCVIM
Procedure, shortened: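 Single-cycle kinetics on GDP-loaded biotin-Avi RAS captured to ~100–300 RU; 75 s ascending injections, 100 µL/min, 30°C. HBS pH 7.4 + 10 mM MgCl2/10 µM GDP/4% DMSO. 1:1 fit, KD.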

[3] = tested on: human lung cancer strain NCI-H441; assay: NCI-H441 cell proliferation inhibitory activity (CellTiter-Glo, 4 days); format: cell-based; conditions: read-out: NCl-H441 IC50
Procedure, shortened: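 Readout: […] after the ATP-based reagent. Compound: serial dilutions in dimethyl sulfoxide.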

[4] = biological target: HRAS wild-type protein (Homo sapiens, UniProt P01112); assay: Binding to HRAS by surface plasmon resonance (SPR), KD and KD ratio to KRAS
Sequence of HRAS wild-type protein (P01112 whole entry): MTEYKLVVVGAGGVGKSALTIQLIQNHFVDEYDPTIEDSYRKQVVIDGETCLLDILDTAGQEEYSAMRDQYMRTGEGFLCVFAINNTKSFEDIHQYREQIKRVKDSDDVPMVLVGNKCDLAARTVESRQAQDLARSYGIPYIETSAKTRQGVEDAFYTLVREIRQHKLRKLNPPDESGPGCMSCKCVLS
Procedure, shortened: as §1

[5] = ratio of KD for GDP-bound NRAS wild-type protein to KD for KRAS
[6] = ratio of KD for HRAS wild-type protein to KD for KRAS
[7] = ratio of KD with respect to GDP-bound NRAS wild-type protein to KD with respect to KRAS
[8] = Single Cycle Kinetics, 1:1 binding model
[9] = 50% proliferation inhibitory concentration, four days
[10] = ratio of KD with respect to HRAS wild-type protein to KD with respect to KRAS

Sequence of GDP-bound NRAS wild-type protein (P01111 whole entry): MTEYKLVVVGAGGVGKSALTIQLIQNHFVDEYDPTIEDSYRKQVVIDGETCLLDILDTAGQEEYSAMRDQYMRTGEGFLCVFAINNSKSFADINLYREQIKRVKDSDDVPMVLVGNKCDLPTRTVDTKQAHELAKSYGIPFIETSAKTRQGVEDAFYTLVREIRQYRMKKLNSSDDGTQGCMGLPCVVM

Row | SMILES | Kd ([2]; 1:1 binding model) [nM] | IC50 ([3]; NCI-H441 cells, 4 days) [nM] | Kd ([2]; Single Cycle Kinetics) [nM] | Kd [2, 8] [nM] | IC50 [3, 9] [nM] | NRAS /KRAS [1, 5] | HRAS /KRAS [4, 6] | NRAS /KRAS [1, 7] | HRAS /KRAS [4, 10]
1 | CCOC[C@H]1C(=O)N[C@@H]([C@@H](C)CC)C(=O)N(C)CC(=O)N(C)[C@H]2C/C=C\CCN(C2=O)[C@@H](Cc2ccc(C)cc2)C(=O)N(C)CC(=O)N[C@@H](CCc2cc(F)c(C(F)(F)F)c(F)c2)C(=O)N2C[C@H](OCC)C[C@H]2C(=O)NC2(CC(C)(C)C2)C(=O)N(C)[C@@H](C2CCCC2)C(=O)N(C)[C@H](C(=O)N(CC)CC)CC(=O)N1C [PP2408] | 0.23 | 21.3 |  |  |  | A (a compound having 10 or more and less than 20 is denoted as A) | A (a compound having 10 or more and less than 20 is denoted as A) |  | 
2 | CCCOC[C@H]1C(=O)N[C@@H]([C@@H](C)CC)C(=O)N(C)CC(=O)N(C)[C@H]2C/C=C\CCN(C2=O)[C@@H](CC2CCC(F)(F)CC2)C(=O)N(C)CC(=O)N[C@@H](CCc2ccc(C(F)(F)F)c(Cl)c2)C(=O)N2C[C@H](OCC)C[C@H]2C(=O)NC2(CC(C)(C)C2)C(=O)N(C)[C@@H](C(CC)CC)C(=O)N(C)[C@H](C(=O)N(C)C)CC(=O)N1C [PP2484] | 1 | 74.3 |  |  |  | A (a compound having 10 or more and less than 20 is denoted as A) | A (a compound having 10 or more and less than 20 is denoted as A) |  | 
3 | CCO[C@@H]1C[C@H]2C(=O)NC3(CCCC3)C(=O)N(C)[C@@H](C3CCCC3)C(=O)N(C)[C@H](C(=O)N(C)C)CC(=O)N(C)[C@@H](CC)C(=O)N[C@@H]([C@@H](C)CC)C(=O)N(C)CC(=O)N(C)[C@H]3CC[C@@H](C)CN(C3=O)[C@@H](Cc3ccc(C(F)(F)F)cc3)C(=O)N(C)CC(=O)N[C@@H](CCc3ccc(C(F)(F)F)c(Cl)c3)C(=O)N2C1 [PP1376] |  |  |  | 0.037 | 3.5 |  |  | B (a compound having 3 or more and less than 10 is denoted as B) | B (a compound having 3 or more and less than 10 is denoted as B)
4 | CCO[C@@H]1C[C@H]2C(=O)NC3(CCCC3)C(=O)N(C)[C@@H](C3CCCC3)C(=O)N(C)[C@H](C(=O)N(C)C)CC(=O)N(C)[C@@H](CC3CC3)C(=O)N[C@@H]([C@@H](C)CC)C(=O)N(C)CC(=O)N(C)[C@H]3C[C@@H](C)[C@@H](C)CN(C3=O)[C@@H](Cc3ccc(C(F)(F)F)cc3)C(=O)N(C)CC(=O)N[C@@H](CCc3cc(F)c(C(F)(F)F)c(F)c3)C(=O)N2C1 [PP1356] |  |  |  | 0.047 | 3.3 |  |  | B (a compound having 3 or more and less than 10 is denoted as B) | B (a compound having 3 or more and less than 10 is denoted as B)

The next lines start with results.

Row | Kd ([2]; 1:1 binding model) [nM] | IC50 ([3]; NCI-H441 cells, 4 days) [nM] | Kd ([2]; Single Cycle Kinetics) [nM] | Kd [2, 8] [nM] | IC50 [3, 9] [nM] | SMILES | NRAS /KRAS [1, 5] | HRAS /KRAS [4, 6] | NRAS /KRAS [1, 7] | HRAS /KRAS [4, 10]
5 |  | 9.3 | 0.15 |  |  | CCC[C@H]1C(=O)N[C@@H]([C@@H](C)CC)C(=O)N(C2CC2)CC(=O)N(C)[C@H]2C/C=C\CCN(C2=O)[C@@H](Cc2ccc(C)cc2)C(=O)N(C)CC(=O)N[C@@H](CCc2cc(F)c(C(F)(F)F)c(F)c2)C(=O)N2CC[C@H](OC)[C@H]2C(=O)N(C)C2(CCC2)C(=O)N(C)[C@@H](C2CCCC2)C(=O)N(C)[C@H](C(=O)N(C)C)CC(=O)N1C [PP3285] | A (a compound having 10 or more and less than 20 is denoted as A) | A (a compound having 10 or more and less than 20 is denoted as A) |  | 
6 |  | 137 | 3.4 |  |  | CCCO[C@@H]1C[C@H]2C(=O)NC3(CC(C)(C)C3)C(=O)N(C)[C@@H](C3CCCC3)C(=O)N(C)[C@H](C(=O)N(C)CC)CC(=O)N(C)[C@@H](COCC)C(=O)N[C@@H]([C@@H](C)CC)C(=O)N3C[C@@H](C)C[C@H]3C(=O)N(C)[C@H]3C/C=C\CCN(C3=O)[C@@H](Cc3ccc(C)cc3)C(=O)N(C)CC(=O)N[C@@H](CCc3ccc(C(F)(F)F)c(OC)c3)C(=O)N2C1 [PP3468] | B (a compound having 3 or more and less than 10 is denoted as B) | A (a compound having 10 or more and less than 20 is denoted as A) |  | 
